Reference: patent publication US10766903B2 (ALMAC DISCOVERY LIMITED, priority 2016, dated 2020)

molecular target: USP7 (Homo sapiens (Human), UniProt Q93009); test: USP7 fluorescence polarisation (FP) biochemical assay, ubiquitin-Lys-TAMRA substrate; conditions: Table 4, biochemical assay; average of at least duplicate experiments; read-out: USP7 IC50
In short: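 Full-length His6-USP7 (2.5 nM) incubated ± inhibitor (8-point dilutions, 200 to 0.1 μM before addition) in 50 mM HEPES pH 7.2, 150 mM NaCl, 0.5 mM EDTA, 5 mM DTT, 0.05% BSA, 0.05% CHAPS. Ubiquitin-Lys-TAMRA cleavage followed by FP (ex 530/em 575 nm) every 15 min for 1.5 h; normalised to no-compound control.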

Sequence of USP7 (Q93009 whole entry): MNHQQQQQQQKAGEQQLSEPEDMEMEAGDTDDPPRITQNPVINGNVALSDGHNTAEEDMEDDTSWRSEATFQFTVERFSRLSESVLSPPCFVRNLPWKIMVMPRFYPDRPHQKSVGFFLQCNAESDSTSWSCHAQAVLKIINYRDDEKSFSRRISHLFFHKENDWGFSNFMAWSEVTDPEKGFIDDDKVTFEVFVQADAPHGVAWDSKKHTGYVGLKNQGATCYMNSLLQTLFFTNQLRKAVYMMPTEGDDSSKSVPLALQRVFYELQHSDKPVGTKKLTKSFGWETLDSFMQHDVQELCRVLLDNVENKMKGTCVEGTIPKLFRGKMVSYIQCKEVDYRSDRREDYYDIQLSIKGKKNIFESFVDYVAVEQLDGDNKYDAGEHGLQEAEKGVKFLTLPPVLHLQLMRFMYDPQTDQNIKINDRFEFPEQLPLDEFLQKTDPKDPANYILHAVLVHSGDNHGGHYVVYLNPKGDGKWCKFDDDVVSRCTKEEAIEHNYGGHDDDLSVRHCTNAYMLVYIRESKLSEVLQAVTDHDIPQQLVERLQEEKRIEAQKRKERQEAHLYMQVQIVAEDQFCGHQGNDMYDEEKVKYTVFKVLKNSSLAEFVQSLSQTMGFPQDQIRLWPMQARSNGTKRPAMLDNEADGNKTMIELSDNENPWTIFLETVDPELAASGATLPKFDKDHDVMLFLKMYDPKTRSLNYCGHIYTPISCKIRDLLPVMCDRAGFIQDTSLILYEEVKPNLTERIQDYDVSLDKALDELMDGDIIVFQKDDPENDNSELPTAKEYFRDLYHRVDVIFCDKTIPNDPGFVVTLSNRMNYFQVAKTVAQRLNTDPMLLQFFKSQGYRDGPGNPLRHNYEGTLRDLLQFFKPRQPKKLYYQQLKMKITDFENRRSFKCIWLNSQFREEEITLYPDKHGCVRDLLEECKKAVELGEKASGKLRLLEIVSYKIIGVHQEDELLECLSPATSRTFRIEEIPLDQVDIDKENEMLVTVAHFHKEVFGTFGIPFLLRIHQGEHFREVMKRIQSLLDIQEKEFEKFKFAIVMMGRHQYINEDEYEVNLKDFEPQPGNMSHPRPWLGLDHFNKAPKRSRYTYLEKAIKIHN

Question: How did the IC50 turn out when COCC(CC(=O)N1CCC(O)(Cn2cnc3c(-c4ccc(CN)cc4)n(C)nc3c2=O)CC1)c1ccccc1 (racemic) [Example 53, (R,S)-3-(4-(Aminomethyl)phenyl)-6-((4-hydroxy-1-(4-methoxy-3-phenylbutanoyl)piperidin-4-yl)methyl)-2-methyl-2H-pyrazolo[4,3-d]pyrimidin-7(6H)-one] was run?
Answer: < 250 nM

Question: With C[C@H](CC(=O)N1CCC(O)(Cn2cnc3c(-c4ccncc4)n(C)nc3c2=O)CC1)c1ccccc1 [Example 26, (R)-6-((4-Hydroxy-1-(3-phenylbutanoyl)piperidin-4-yl)methyl)-2-methyl-3-(pyridin-4-yl)-2H-pyrazolo[4,3-d]pyrimidin-7(6H)-one] as the molecule, how does the IC50 read?
Answer: 250 to 999 nM

Question: [2H]C1([2H])Oc2ccc(-n3c(Cl)cc4c(=O)n(CC5(O)CCN(C(=O)c6cnc(C7CC7)o6)CC5)cnc43)cc2O1 [Example 236, 7-(Benzo[d][1,3]dioxol-5-yl-2,2-d2)-6-chloro-3-((1-(2-cyclopropyloxazole-5-carbonyl)-4-hydroxypiperidin-4-yl)methyl)-3,7-dihydro-4H-pyrrolo[2,3-d]pyrimidin-4-one] was tested. Which IC50 did it give?
Answer: < 250 nM

Question: CC1(C(=O)N2CCC(O)(Cn3cnc4c(cc(Cl)n4-c4csc(CO)c4)c3=O)CC2)CC1 [Example 201, 6-Chloro-3-((4-hydroxy-1-(1-methylcyclopropanecarbonyl)piperidin-4-yl)methyl)-7-(5-(hydroxymethyl)thiophen-3-yl)-3H-pyrrolo[2,3-d]pyrimidin-4(7H)-one] was tested. Which IC50 did it give?
Answer: < 250 nM

Question: For C[C@H](CC(=O)N1CCC(O)(Cn2cnc(NCC(=O)N(C)C)cc2=O)CC1)c1ccccc1 [Example 161, (R)-2-((1-((4-hydroxy-1-(3-phenylbutanoyl)piperidin-4-yl)methyl)-6-oxo-1,6-dihydropyrimidin-4-yl)amino)-N,N-dimethylacetamide], which IC50 is on record?
Answer: 1000 to 200000 nM

Question: Which IC50 does the source give for Cn1nc2c(=O)n(CC3(O)CCN(C(=O)CCC4CCC4)CC3)cnc2c1-c1ccc(CN)cc1 [Example 138, 3-(4-(Aminomethyl)phenyl)-6-((1-(3-cyclobutylpropanoyl)-4-hydroxypiperidin-4-yl)methyl)-2-methyl-2H-pyrazolo[4,3-d]pyrimidin-7(6H)-one] here?
Answer: 250 to 999 nM

Question: For Cn1c(Cl)cc2c(=O)n(CC3(O)CCN(C(=O)C4(C)CC4)CC3)cnc21 [Example 209, 6-Chloro-3-((4-hydroxy-1-(1-methylcyclopropanecarbonyl)piperidin-4-yl)methyl)-7-methyl-3H-pyrrolo[2,3-d]pyrimidin-4(7H)-one], which IC50 is on record?
Answer: 1000 to 200000 nM

Question: How did the IC50 turn out when C[C@H](CC(=O)N1CCC(O)(Cn2cnc(N3CCC[C@H](N(C)C)C3)cc2=O)CC1)c1ccccc1 [Example 50, 6-((S)-3-(Dimethylamino)piperidin-1-yl)-3-((4-hydroxy-1-((R)-3-phenylbutanoyl)piperidin-4-yl)methyl)pyrimidin-4(3H)-one] was run?
Answer: < 250 nM

Question: With Cn1nc2c(=O)n(CC3(O)CCN(C(=O)c4cnco4)CC3)cnc2c1-c1ccccc1 [Example 192, 6-((4-Hydroxy-1-(oxazole-5-carbonyl)piperidin-4-yl)methyl)-2-methyl-3-phenyl-2H-pyrazolo[4,3-d]pyrimidin-7(6H)-one] as the molecule, how does the IC50 read?
Answer: 1000 to 200000 nM

Question: How did the IC50 turn out when C[C@H](CC(=O)N1CCC(O)(Cn2cnc(NC[C@@H]3CCCN3C)cc2=O)CC1)c1ccccc1 [Example 66, 3-((4-Hydroxy-1-((R)-3-phenylbutanoyl)piperidin-4-yl)methyl)-6-((((S)-1-methylpyrrolidin-2-yl)methyl)amino)pyrimidin-4(3H)-one, Formic Acid] was run?
Answer: 1000 to 200000 nM

Question: Cn1cc(C(=O)N2CCC(O)(Cn3cnc4c(cc(Cl)n4-c4ccc(Cl)cc4)c3=O)CC2)cn1 [Example 229, 6-Chloro-7-(4-chlorophenyl)-3-((4-hydroxy-1-(1-methyl-1H-pyrazole-4-carbonyl)piperidin-4-yl)methyl)-3H-pyrrolo[2,3-d]pyrimidin-4(7H)-one] was tested. Which IC50 did it give?
Answer: 250 to 999 nM

Question: Which IC50 does the source give for Cn1nc2c(=O)n(CC3(O)CCN(C(=O)OCc4ccccc4)CC3)cnc2c1-c1ccc(CN)cc1 [Example 112, Benzyl 4-((3-(4-(aminomethyl)phenyl)-2-methyl-7-oxo-2,7-dihydro-6H-pyrazolo[4,3-d]pyrimidin-6-yl)methyl)-4-hydroxypiperidine-1-carboxylate] here?
Answer: 1000 to 200000 nM

Question: For NCc1ccc(-n2c(Cl)cc3c(=O)n(CC4(O)CCN(C(=O)c5cnc(C6CC6)o5)CC4)cnc32)cc1 [Example 242, 7-(4-(Aminomethyl)phenyl)-6-chloro-3-((1-(2-cyclopropyloxazole-5-carbonyl)-4-hydroxypiperidin-4-yl)methyl)-3,7-dihydro-4H-pyrrolo[2,3-d]pyrimidin-4-one], which IC50 is on record?
Answer: < 250 nM

Question: How did the IC50 turn out when C[C@H](CC(=O)N1CCC(O)(Cn2cnc(N3CC(F)C3)cc2=O)CC1)c1ccccc1 [Example 165, (R)-6-(3-fluoroazetidin-1-yl)-3-((4-hydroxy-1-(3-phenylbutanoyl)piperidin-4-yl)methyl)pyrimidin-4(3H)-one] was run?
Answer: 1000 to 200000 nM

Question: CC1(C(=O)N2CCC(O)(Cn3cnc4c(cc(Cl)n4-c4cccc(Br)c4)c3=O)CC2)CC1 [Example 214, 7-(3-Bromophenyl)-6-chloro-3-((4-hydroxy-1-(1-methylcyclopropanecarbonyl)piperidin-4-yl)methyl)-3H-pyrrolo[2,3-d]pyrimidin-4(7H)-one] was tested. Which IC50 did it give?
Answer: 250 to 999 nM

Question: With Cn1nc2c(=O)n(CC3(O)CCN(C(=O)C[C@H](c4ccccc4)C(F)(F)F)CC3)cnc2c1-c1ccc(CN)c(C(F)(F)F)c1 [Example 123, (R)-3-(4-(Aminomethyl)-3-(trifluoromethyl)phenyl)-6-((4-hydroxy-1-(4,4,4-trifluoro-3-phenylbutanoyl)piperidin-4-yl)methyl)-2-methyl-2H-pyrazolo[4,3-d]pyrimidin-7(6H)-one] as the molecule, how does the IC50 read?
Answer: < 250 nM

Question: With C[C@H](CC(=O)N1CCC(O)(Cn2cnc(NCc3ccnn3C)cc2=O)CC1)c1ccccc1 [Example 154, (R)-3-((4-hydroxy-1-(3-phenylbutanoyl)piperidin-4-yl)methyl)-6-(((1-methyl-1H-pyrazol-5-yl)methyl)amino)pyrimidin-4(3H)-one] as the molecule, how does the IC50 read?
Answer: 1000 to 200000 nM

Question: With Cc1nc2c(=O)n(CC3(O)CCN(C(=O)C[C@@H](C)c4ccccc4)CC3)cnc2n1-c1ccc(CN)cc1 [Example 72, (R)-9-(4-(Aminomethyl)phenyl)-1-((4-hydroxy-1-(3-phenylbutanoyl)piperidin-4-yl)methyl)-8-methyl-1H-purin-6(9H)-one] as the molecule, how does the IC50 read?
Answer: < 250 nM

same assay, conditions: USP7 IC50, Table 4, biochemical assay; average of at least duplicate experiments

Question: Cn1nc2c(=O)n(CC3(O)CCN(C(=O)C[C@H](c4ccccc4)C(F)(F)F)CC3)cnc2c1-c1ccc([C@@H](N)C(F)(F)F)cc1 [Example 118, 3-(4-((R)-1-Amino-2,2,2-trifluoroethyl)phenyl)-6-((4-hydroxy-1-((R)-4,4,4-trifluoro-3-phenylbutanoyl)piperidin-4-yl)methyl)-2-methyl-2H-pyrazolo[4,3-d]pyrimidin-7(6H)-one] was tested. Which IC50 did it give?
Answer: 250 to 999 nM

Question: Which IC50 does the source give for Cc1nc2c(=O)n(CC3(O)CCN(C(=O)C[C@H](c4ccccc4)C(F)(F)F)CC3)cnc2n1-c1ccccc1 [Example 189, (R)-1-((4-Hydroxy-1-(4,4,4-trifluoro-3-phenylbutanoyl)piperidin-4-yl)methyl)-8-methyl-9-phenyl-1H-purin-6(9H)-one] here?
Answer: 250 to 999 nM

Question: Which IC50 does the source give for C[C@H](CC(=O)N1CCC(O)(Cn2cnc(-c3cnn(C)c3)cc2=O)CC1)c1ccccc1 [Example 40, (R)-3-((4-Hydroxy-1-(3-phenylbutanoyl)piperidin-4-yl)methyl)-6-(1-methyl-1H-pyrazol-4-yl)pyrimidin-4(3H)-one] here?
Answer: 250 to 999 nM
